Laboratory results taken from patent US5854004A, “Process for screening substances capable of modulating a receptor-dependent cellular signal transmission path” (Boehringer Ingleheim GmbH, priority 1991, dated 1998).

How the values were obtained:
HeLa cells = experiment: Induction of TRE-sensor-DNA (luciferase) in transiently transfected pretest cells, HeLa; conditions: 18 h
Description: (§1) Approximately 1×10^7 cells per transfection were detached from the surface of the culture dish using trypsin and centrifuged for 5 minutes at 1200 rpm at ambient temperature (Heraeus Minifuge), washed once with 5 ml of serum-free medium, centrifuged for 5 minutes at 1200 rpm and suspended in 1 ml of serum-free medium. Then the cells were mixed with 250 μg/ml DEAE-dextrane, 5 μg plasmid DNA and 50 μg/ml chloroquin, incubated for 30 minutes at 37° C., washed once with medium containing no FCS and incubated overnight at 37° C. with 10 ml of fresh serum-containing medium. Then the medium was changed and after 4 hours the cells were induced, either with 10 ng TPA/ml medium or with 20 μM forskolin. […] The cells were lysed by the addition of 100 μl lysing buffer (1% Triton X-100, 25 mM glycylglycine pH 7.8, 15 mM MgSO4, 4 mM EDTA and 1 mM […]), the lysate was centrifuged for 5 minutes and the supernatant was transferred into a fresh test tube. […] The measuring time for light emission was 10 seconds.
(§2) The cell lines A549, HeLa and COS-7 were transiently transfected as described above by the addition of plasmid pBHluc1.3 and induced by the addition of TPA. Cells which were only transfected but not induced were used as a negative control.
(§3) The cell lines A549, HeLa and COS-7 were transiently transfected by the addition of plasmid pADneo(3TRE)BGluci and induced by the addition of TPA or forskolin. Once again, cells which were only transfected but not induced were used as a negative control.

[1] = target: human muscarinic M3-receptor (Homo sapiens, UniProt P20309); assay type: cell-based
A549 cells [2] = conditions: Voraberger et al., 1991; cited from earlier work
cell line A20 = experiment: Luciferase induction in stable TRE-pretest cell line A20 (A549, pBHluc1.3)
Description: In order to produce a stable (pre-)test cell line for substances which influence the expression of the luciferase gene by direct or receptor-mediated modulation of the IP3 /DAC-signal transduction pathway, A549 cells were simultaneously transfected with the plasmid pBHluc1.3 and the selection plasmid pRSVneo by electroporation as follows: after removal of the medium the cells were detached from the surface by means of a trypsin/PBS solution, suspended in medium and sedimented for 5 minutes at 250×g. […] 0.8 ml of cell suspension were combined with 20 μg of pBHluc1.3 and 2 μg of pRSVneo. Both plasmids had previously been linearised with BamHI.
(§4) 15-20 days after transfection, individual cell clones were transferred into 96-well microtitre plates and further cultivated. […] Approximately 40,000 cells in each clone were sown, in a procedure repeated 6 times, in 200 μl per well of a light-impervious 96-well microtitre plate coated with tissue culture (Microlite™, Dynatech Laboratories) and incubated overnight at 37° C. Three mixtures were treated with 10 ng TPA/ml and incubated for a further 8 hours. Then the medium was removed and the cells were washed twice with PBS.
(§5) The pretest cell line A20 was transfected, as described under a), by electroporation with the plasmid pAHyg-NK2, which had previously been linearised with BglII. From the day after transfection onwards, the cells were grown in selection medium, as used for the cell line A20 and additionally enriched with 150 μg/ml hygromycin B (Sigma). Individual clones were tested for inducibility of the luciferase activity as described under a).

[3] = target: T1, human neurokinin 2-receptor (Homo sapiens, UniProt P21452); experiment: Luciferase activity in NK2-test cell line A20/NK2-122; conditions: A20/NK2-122, depending on the dose
T1 sequence (P21452 1-398): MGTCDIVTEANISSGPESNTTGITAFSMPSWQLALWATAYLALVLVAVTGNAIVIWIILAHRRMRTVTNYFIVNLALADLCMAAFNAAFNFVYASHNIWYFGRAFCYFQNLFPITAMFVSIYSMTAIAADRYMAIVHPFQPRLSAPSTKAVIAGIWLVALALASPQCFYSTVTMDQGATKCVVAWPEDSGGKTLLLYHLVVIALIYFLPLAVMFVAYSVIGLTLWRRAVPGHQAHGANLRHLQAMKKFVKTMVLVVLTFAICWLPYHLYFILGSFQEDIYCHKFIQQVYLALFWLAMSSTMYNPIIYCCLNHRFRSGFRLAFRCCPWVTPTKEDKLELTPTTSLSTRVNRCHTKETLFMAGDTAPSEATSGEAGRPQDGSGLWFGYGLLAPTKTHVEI
Description: as §4
This Example illustrates the preparation of a test cell line for the human neurokinin 2 (NK2)-receptor which is coupled to the phospholipase C-signal transduction pathway. This test cell line makes it possible, by measurement of the luciferase activity, to identify substances which modulate the intracellular IP3 /DAG concentrations, depending on the receptor.
as §5

COS-7 cells = experiment: Induction of TRE-sensor-DNA (luciferase) in transiently transfected pretest cells, COS-7
Description: as §1, §2, §3
(§6) The cell lines COS-7 and A549 were transiently transfected by the addition of plasmid pADneo(3×TREd16)BGluci, pADneo(3×TREd21)BGluci, pADneo(3×TREd24)BGluci, pADneo(3×TREd34)BGluci, pADneo(6×TREd16)BGluci, pADneo(6×TREd21)BGluci, pADneo(6×TREd24)BGluci or pADneo(6×TREd34)BGluci and induced by the addition of TPA or forskolin.

A549 cells [4] = experiment: Induction of TRE-sensor-DNA (luciferase) in transiently transfected pretest cells, A549
Description: as §1, §2, §3, §6

cell line CHO C6-13 = experiment: Luciferase expression in CRE-pretest cell line CHO C6-13; conditions: 3 hours treatment, FIG. 33
Description: The transfection by electroporation was carried out as follows: after removal of the medium the cells were detached from the surface by means of a trypsin/PBS solution, suspended in medium and pelleted for 5 minutes at 250×g. The cells were washed in HBS (10 mM HEPES pH 7.4, 150 mM NaCl) and pelleted by centrifuging. The cells were suspended in HBS in a density of 1×10^7 cells/ml. 0.8 ml of cell suspension were mixed with 20 μg of DNA of the plasmid pADneo2-C6-BGL linearised with ScaI and transferred into an electroporation dish. […] After the electroporation the cells were diluted in the medium mentioned above, 20,000 cells per 90 mm culture dish was sown and incubated overnight at 37° C.
Two batches of each were treated with 20 μM forskolin and incubated for a further 5 hours at 37° C. Then the medium was removed from all the cells and the cells were washed with PBS.
Cells of the cell line CHO C6-13 were treated for 3 hours with various substances which alter the intracellular concentration of cAMP or IP3 /DAG or simulate a change in concentration, and also treated with receptor-specific agonists which influence the above-mentioned signal transduction mechanisms.

[5] = target: T2, human dopamine D1-receptor (Homo sapiens, UniProt P21728); experiment: Induction of pBHluc1.3 (TRE) via dopamine-D1-receptor in co-transfected COS-7 cells; assay type: cell-based; conditions: 10 ng/ml TPA or 1 μM apomorphine, 18 h
[6] = target: T2, human dopamine D1-receptor; experiment: Luciferase activity in dopamine D1-receptor test cell line CHO 13D1-38
Description: The cell line CHO C6-13 characterised above was transfected, as described under a), by electroporation with plasmid pAD-CMV2:D1, which had previously been linearised with FspI.
For the use of test cell lines in an automatic screening system with a high throughput rate it is advantageous to use microtitre plates having 96 wells per plate. For this purpose, 60,000 cells (CHO C6-13 or CHO 13D1-38) were sown in 200 μl medium per well in light-impermeable microtitre plates coated with tissue culture
(Microlite™, Dynatech Labroatories) and incubated overnight at 37° C. Then various chemicals were added to the cells and they were incubated for a certain length of time (usually 3 hours). After removal of the medium the cells were washed with PBS, lysed in 1% Triton X-100 and the luciferase activity was measured in a 96-well luminometer (ML-1000, Dynatech) (FIG. 36).
In order to simulate a screening process in which the test substances are preferably supplied in a uniform solvent, a final concentration of 1% DMSO was used in this experiment.

[7] = target: T2, human dopamine D1-receptor; experiment: Induction of pADneo2-C6-BGL (CRE) via dopamine-D1-receptor in co-transfected COS-7 cells; conditions: COS-7; 20 μM forskolin or 1 μM apomorphine, 18 h
human 5HT2-receptor [8] = target: T3, human 5HT2-receptor (Homo sapiens, UniProt P28223); experiment: Induction of pBHluc1.3 (TRE) via 5-HT2-receptor in co-transfected COS-7 cells; assay type: cell-based
Description: (§7) Induction was carried out with i) 20 μM forskolin (Sigma P8139), ii) 10 μα-methylserotonin-maleate (RBI M-110), and iii) 10 μα-methylserotonin-maleate and 10 μM ketanserin-tartrate (RBI S-006). […] It follows, from the above results, that, depending on 5-HT2 -receptors, only regulation elements which respond to IP3 /DAG (TRE), but not regulation elements which respond to cAMP (CRE) are selectively activated.

human 5HT2-receptor [9] = target: T3, human 5HT2-receptor; experiment: cell-based; conditions: read-out: induction of luciferase activity, clone A20/5HT2-11
From the text: The human 5HT2-receptor is another example of a receptor coupled to the phospholipase C-signal transduction pathway. The TRE-cell line A20 is therefore also suitable in this case as a starting cell line for establishing a test cell line in order to discover substances which modulate the activity of the 5HT2-receptor.
The plasmid pAHyg-5HT2, linearised with BglII, was for this purpose transfected into the cell line A20 by electroporation as described under a) and grown in selection medium.
For this purpose the cells were simultaneously treated with a constant amount of serotonin (1 μg) and increasing amounts of antagonist.

human 5HT2-receptor [10] = target: T3, human 5HT2-receptor; experiment: Induction of pADneo2-C6-BGL (CRE) via 5-HT2-receptor in co-transfected COS-7 cells; assay type: cell-based; conditions: 20 μM forskolin or 10 μ α-methylserotonin-maleate
Description: as §7

[11] = 10 ng TPA/ml or 20 μM forskolin
[12] = COS-7, 10 ng TPA/ml or 20 μM forskolin, 18 h

CCCCCCCCCCCCCC(=O)O[C@@H]1[C@@H](C)[C@@]2(O)[C@@H](C=C(CO)C[C@]3(O)C(=O)C(C)=C[C@@H]23)[C@@H]2C(C)(C)[C@]12OC(C)=O [TPA, phorbol-12-myristat-13-acetate]
induction of pADneo(3TRE)BGluci (HeLa cells; [11]): can be induced in the tested cells by TPA
induction of pBHluc1.3 by TPA or forskolin (HeLa cells; [11]): could also be induced by TPA
fold induction at 0.01 µg/mL (HeLa cells; Homo sapiens, read-out: induction of pBHluc1.3 (luciferase)): > 10
induction of luciferase expression [1]: induced both by TPA and by carbachol
induction of 1.3 kb ICAM-1 fragment / pBHluc1.3 (A549 cells [2]): can be induced by TPA
maximum induction of luciferase activity by TPA (cell line A20; A20, depending on the dose): ≤ 18 times
fold induction at 0.01 µg/mL (cell line A20; Homo sapiens, A549, 8 h, read-out: inducibility of luciferase activity, clone A20): 15 to 20
maximum induction of luciferase activity by TPA [3]: ≤ 18 times
induction of pADneo(6×TREdx)BGluci depending on spacing of TRE-elements (COS-7 cells; COS-7, 10 ng TPA/ml): higher when the spacing of the TRE-elements is smaller
induction of pADneo(nTREdx)BGluci, 6 versus 3 TRE-elements (COS-7 cells; COS-7, 10 ng TPA/ml): the induction with TPA for the constructions with 6 TRE-elements is greater than for the constructions with 3 TRE-elements
induction of pADneo(3TRE)BGluci (COS-7 cells; [12]): can be induced in the tested cells by TPA
induction of pBHluc1.3 by TPA or forskolin (COS-7 cells; [12]): could also be induced by TPA
fold induction at 0.01 µg/mL (COS-7 cells; Primates, COS-7, 18 h, read-out: induction of pBHluc1.3 (luciferase)): > 10
induction of pADneo(6×TREdx)BGluci depending on spacing of TRE-elements (A549 cells [4]; A549, 10 ng TPA/ml): higher when the spacing of the TRE-elements is smaller
induction of pADneo(nTREdx)BGluci, 6 versus 3 TRE-elements (A549 cells [4]; A549, 10 ng TPA/ml): the induction with TPA for the constructions with 6 TRE-elements is greater than for the constructions with 3 TRE-elements
induction of pADneo(3TRE)BGluci (A549 cells [4]; A549, 10 ng TPA/ml or 20 μM forskolin, 18 h): can be induced in the tested cells by TPA
fold induction at 0.01 µg/mL (A549 cells [4]; Homo sapiens, A549, 18 h, read-out: induction of pBHluc1.3 (luciferase)): > 10
change in luciferase expression/activity (cell line CHO C6-13): did not bring about any significant change in the luciferase activity
induction of luciferase expression (TRE) [5]: induced by TPA

CN1CCc2cccc3c2[C@H]1Cc1ccc(O)c(O)c1-3 [apomorphine]
increase in luciferase activity, clone CHO 13D1-38 ([6]; 10 μM apomorphine, 4 hours): highest increase in luciferase activity
concentration which brings about maximum induction of the luciferase reporter gene ([6]; apomorphine final concentration): 1 µM
time after stimulation at which increased luciferase activity was measured ([6]; apomorphine, FIG. 37A): one
time to maximum luciferase activation ([6]; apomorphine, FIG. 37A): 2.5 h
time up to which luciferase activation remained constant ([6]; apomorphine, FIG. 37A): 4 h
dependency of ED50 values on duration of receptor stimulation ([6]; apomorphine, FIG. 37B): no significant dependency
change in luciferase expression/activity (cell line CHO C6-13): did not bring about any significant change in the luciferase activity
induction of luciferase expression (CRE) [7]: induced by forskolin and by apomorphine
induction of luciferase expression (TRE) [5]: not by apomorphine

O=C(c1ccc(F)cc1)C1CCN(CCn2c(=O)[nH]c3ccccc3c2=O)CC1 [ketanserin-tartrate]
prevention of agonist-mediated induction (human 5HT2-receptor [8]; 10 μM α-methylserotonin-maleate and 10 μM ketanserin-tartrate): prevented

CC(N)Cc1c[nH]c2ccc(O)cc12 (stereo not drawn) [α-methylserotonin-maleate]
induction of luciferase expression (TRE) (human 5HT2-receptor [8]; COS-7, 10 ng/ml TPA or 10 μg α-methylserotonin-maleate, 18 h): induced both by TPA and by α-methylserotonin-maleate
fold induction at 10 µM (human 5HT2-receptor [9]): 4 to 5
induction of luciferase expression (CRE) (human 5HT2-receptor [10]): not by the 5-HT2-receptor-agonist α-methylserotonin-maleate
